The results in this text go back to patent US20260028365A1 (BIOGEN MA INC., priority 2022, published 2026).

By IC50 is commonly meant the concentration needed to halve the response being measured.

The target of one experiment is Tyk2 (Homo sapiens (Human), UniProt P29597). Description: pSTAT4 Cell Assay (MSD, NK92 cells). In kind it is cell-based. As to conditions: MSD.
A further experiment addresses JH2 domain of human Tyk2 (Homo sapiens (Human), UniProt P29597). Kind of experiment: JH2 Biochemical Assay (TR-FRET probe displacement). In kind it is binding. Particulars: JH2 domain of human Tyk2, TR-FRET probe displacement. (TR-FRET usually uses a lanthanide donor and a delayed reading to cut background.)

Each structure is given as a SMILES string.

Tyk2, sequence (P29597 whole entry, the tested form may be a part): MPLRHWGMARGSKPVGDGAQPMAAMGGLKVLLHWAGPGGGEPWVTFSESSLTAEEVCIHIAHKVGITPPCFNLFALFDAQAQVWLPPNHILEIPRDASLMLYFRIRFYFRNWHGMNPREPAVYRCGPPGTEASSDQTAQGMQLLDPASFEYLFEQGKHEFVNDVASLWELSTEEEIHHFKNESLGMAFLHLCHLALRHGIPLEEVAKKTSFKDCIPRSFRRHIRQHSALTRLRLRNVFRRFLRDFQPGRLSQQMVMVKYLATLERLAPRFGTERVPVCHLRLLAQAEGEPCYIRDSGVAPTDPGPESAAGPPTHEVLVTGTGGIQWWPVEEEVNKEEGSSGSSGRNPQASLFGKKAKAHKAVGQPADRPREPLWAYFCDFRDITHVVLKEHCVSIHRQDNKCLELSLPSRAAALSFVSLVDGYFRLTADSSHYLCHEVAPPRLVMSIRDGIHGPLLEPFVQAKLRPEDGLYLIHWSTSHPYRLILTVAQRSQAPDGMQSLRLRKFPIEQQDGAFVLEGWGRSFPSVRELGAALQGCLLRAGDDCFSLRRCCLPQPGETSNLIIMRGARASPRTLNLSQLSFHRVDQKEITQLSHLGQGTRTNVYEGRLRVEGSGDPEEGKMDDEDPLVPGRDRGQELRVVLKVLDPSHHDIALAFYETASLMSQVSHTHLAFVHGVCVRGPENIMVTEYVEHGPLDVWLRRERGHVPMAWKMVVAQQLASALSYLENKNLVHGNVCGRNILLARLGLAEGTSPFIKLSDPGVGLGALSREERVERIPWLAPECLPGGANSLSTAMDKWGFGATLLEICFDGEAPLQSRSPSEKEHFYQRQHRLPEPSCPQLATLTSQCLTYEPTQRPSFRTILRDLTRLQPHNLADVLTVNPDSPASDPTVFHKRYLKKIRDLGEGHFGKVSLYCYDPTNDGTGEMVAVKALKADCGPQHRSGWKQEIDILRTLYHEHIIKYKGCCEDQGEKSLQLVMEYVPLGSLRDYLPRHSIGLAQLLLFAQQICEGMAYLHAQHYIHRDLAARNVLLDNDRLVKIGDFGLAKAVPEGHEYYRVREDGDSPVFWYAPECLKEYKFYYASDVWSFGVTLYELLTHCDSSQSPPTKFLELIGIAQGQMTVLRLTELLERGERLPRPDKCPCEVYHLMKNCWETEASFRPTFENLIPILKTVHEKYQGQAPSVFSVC
JH2 domain of human Tyk2, sequence (P29597 575-876): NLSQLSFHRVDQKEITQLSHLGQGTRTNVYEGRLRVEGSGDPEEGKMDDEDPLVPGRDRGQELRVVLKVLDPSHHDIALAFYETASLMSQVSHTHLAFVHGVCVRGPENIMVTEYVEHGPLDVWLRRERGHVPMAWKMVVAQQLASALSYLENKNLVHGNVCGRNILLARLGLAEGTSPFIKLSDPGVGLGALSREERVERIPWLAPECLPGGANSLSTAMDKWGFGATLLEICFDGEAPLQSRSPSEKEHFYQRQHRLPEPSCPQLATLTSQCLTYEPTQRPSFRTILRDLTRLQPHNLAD

For `COc1nc(C)cc(Nc2cc(NC(C)=O)ncc2-c2ccn(C)n2)n1` [Example 551, N-(4-((2-methoxy-6-methylpyrimidin-4-yl)amino)-5-(1-methyl-1H-pyrazol-3-yl)pyridin-2-yl)acetamide], the IC50 was 10 to 100 nM against Tyk2 and at most 10 nM at JH2 domain of human Tyk2.

Take `COc1ccnc(Nc2cc(NC(C)=O)ncc2-c2ccn(C)n2)n1` [Example 553, N-(4-((4-methoxypyrimidin-2-yl)amino)-5-(1-methyl-1H-pyrazol-3-yl)pyridin-2-yl)acetamide]: the results for the half-maximal inhibitory concentration (IC50) on Tyk2 and on JH2 domain of human Tyk2 were 100 to 1000 nM and 10 to 100 nM, respectively.

On to `CC(=O)Nc1cc(Nc2cc(C)nc(C34COC(C)(C3)C4)n2)c(-c2ccn(C)n2)cn1` [Example 554, N-(5-(1-methyl-1H-pyrazol-3-yl)-4-((6-methyl-2-(1-methyl-2-oxabicyclo[2.1.1]hexan-4-yl)pyrimidin-4-yl)amino)pyridin-2-yl)acetamide], for which the IC50 against Tyk2 is at least 1000 nM; at JH2 domain of human Tyk2, 10 to 100 nM.

On to `CC(=O)Nc1cc(Nc2cc(C)nc(C3CCOC3)n2)c(-c2ccn(C)n2)cn1` (centres unmarked) [Example 555, N-(5-(1-methyl-1H-pyrazol-3-yl)-4-((6-methyl-2-(tetrahydrofuran-3-yl)pyrimidin-4-yl)amino)pyridin-2-yl)acetamide], for which the results for the IC50 against Tyk2 and on JH2 domain of human Tyk2 were 10 to 100 nM and at most 10 nM, respectively.

For `CC(=O)Nc1cc(Nc2ccnc(C3CCOC3)n2)c(-c2ccn(C)n2)cn1` (centres unmarked) [Example 556, N-(5-(1-methyl-1H-pyrazol-3-yl)-4-((2-(tetrahydrofuran-3-yl)pyrimidin-4-yl)amino)pyridin-2-yl)acetamide], the results for the IC50 at Tyk2 and at JH2 domain of human Tyk2 were 10 to 100 nM and at most 10 nM, respectively.

On to `CC(=O)Nc1cc(Nc2cc(C)nc(C34CCC(C3)OC4)n2)c(-c2ccn(C)n2)cn1` (centres unmarked) [Example 557, N-(4-((2-(2-oxabicyclo[2.2.1]heptan-4-yl)-6-methylpyrimidin-4-yl)amino)-5-(1-methyl-1H-pyrazol-3-yl)pyridin-2-yl)acetamide], for which the IC50 against Tyk2 was 10 to 100 nM; at JH2 domain of human Tyk2, at most 10 nM.

As to `CC(=O)Nc1cc(Nc2cc(C)nc(C3(F)CC3)n2)c(-c2ccn(C)n2)cn1` [Example 558, N-(4-((2-(1-fluorocyclopropyl)-6-methylpyrimidin-4-yl)amino)-5-(1-methyl-1H-pyrazol-3-yl)pyridin-2-yl)acetamide], the IC50 on Tyk2 and at JH2 domain of human Tyk2 was at most 10 nM each time.

Regarding `COCCOc1nc(C)cc(Nc2cc(NC(C)=O)ncc2-c2ccn(C)n2)n1` [Example 559, N-(4-((2-(2-methoxyethoxy)-6-methylpyrimidin-4-yl)amino)-5-(1-methyl-1H-pyrazol-3-yl)pyridin-2-yl)acetamide], the IC50 was 10 to 100 nM against Tyk2 and at most 10 nM at JH2 domain of human Tyk2.

On to `CC(=O)Nc1cc(Nc2cc(C)nc([C@]34CO[C@](CF)(C3)C4)n2)c(-c2ccn(C)n2)cn1` [Example 560, N-(4-((2-((1s,4s)-1-(fluoromethyl)-2-oxabicyclo[2.1.1]hexan-4-yl)-6-methylpyrimidin-4-yl)amino)-5-(1-methyl-1H-pyrazol-3-yl)pyridin-2-yl)acetamide], for which the figures for the IC50 against Tyk2 and on JH2 domain of human Tyk2 were at least 1000 nM and 10 to 100 nM, respectively.

Turning to `CC(=O)Nc1cc(Nc2cc(C)nc(C34CC(CO3)C4)n2)c(-c2ccn(C)n2)cn1` [Example 562, N-(4-((2-(2-oxabicyclo[2.1.1]hexan-1-yl)-6-methylpyrimidin-4-yl)amino)-5-(1-methyl-1H-pyrazol-3-yl)pyridin-2-yl)acetamide], the figures for the IC50 on Tyk2 and at JH2 domain of human Tyk2 were 10 to 100 nM and at most 10 nM, respectively.

Consider `CC(=O)Nc1cc(Nc2cc(C)nc(C34COC(C3)C4)n2)c(-c2ccc3c(n2)OCC(C)(C)O3)cn1` [Example 563, N-(4-((2-(2-oxabicyclo[2.1.1]hexan-4-yl)-6-methylpyrimidin-4-yl)amino)-5-(2,2-dimethyl-2,3-dihydrO[1,4]dioxino[2,3-b]pyridin-6-yl)pyridin-2-yl)acetamide], for which the IC50 at Tyk2 is 10 to 100 nM; at JH2 domain of human Tyk2, at most 10 nM.

Turning to `CC(=O)Nc1cc(Nc2cc(C)nc(C34COC(C3)C4)n2)c(-c2cc3n(n2)CC(F)(F)C3)cn1` [Example 564, N-(4-((2-(2-oxabicyclo[2.1.1]hexan-4-yl)-6-methylpyrimidin-4-yl)amino)-5-(5,5-difluorO5,6-dihydrO4H-pyrrolo[1,2-b]pyrazol-2-yl)pyridin-2-yl)acetamide], the IC50 at Tyk2 and on JH2 domain of human Tyk2 was at most 10 nM in each case.

Consider `COCc1ccc(-c2cnc(NC(C)=O)cc2Nc2ccnc(C3CCOC3)n2)nc1` (centres unmarked) [Example 567, N-(5-(methoxymethyl)-4′-((2-(tetrahydrofuran-3-yl)pyrimidin-4-yl)amino)-[2,3′-bipyridin]-6′-yl)acetamide], for which the IC50 on Tyk2 was 10 to 100 nM; at JH2 domain of human Tyk2, at most 10 nM.

For `COCc1ccc(-c2cnc(NC(C)=O)cc2Nc2cc(C)nc(C3CCOC3)n2)nc1` (centres unmarked) [Example 568, N-(5-(methoxymethyl)-4′-((6-methyl-2-(tetrahydrofuran-3-yl)pyrimidin-4-yl)amino)-[2,3′-bipyridin]-6′-yl)acetamide], the IC50 against Tyk2 and on JH2 domain of human Tyk2 was at most 10 nM throughout.

Take `CCc1cc(Nc2cc(NC(C)=O)ncc2-c2ccc(COC)cn2)nc(C2CCOC2)n1` (centres unmarked) [Example 569, N-(4′-((6-ethyl-2-(tetrahydrofuran-3-yl)pyrimidin-4-yl)amino)-5-(methoxymethyl)-[2,3′-bipyridin]-6′-yl)acetamide]: the IC50 on Tyk2 and at JH2 domain of human Tyk2 was at most 10 nM throughout.

For `COCc1ccc(-c2cnc(NC(C)=O)cc2Nc2cc(COC)nc(C3CCOC3)n2)nc1` (centres unmarked) [Example 570, N-(5-(methoxymethyl)-4′-((6-(methoxymethyl)-2-(tetrahydrofuran-3-yl)pyrimidin-4-yl)amino)-[2,3′-bipyridin]-6′-yl)acetamide], the IC50 on Tyk2 is 10 to 100 nM; on JH2 domain of human Tyk2, at most 10 nM.

`CC(=O)Nc1cc(Nc2cc(C)nc(C34COC(C3)C4)n2)c(-c2ccc(C(F)F)cn2)cn1` [Example 572, N-(4′-((2-(2-oxabicyclo[2.1.1]hexan-4-yl)-6-methylpyrimidin-4-yl)amino)-5-(difluoromethyl)-[2,3′-bipyridin]-6′-yl)acetamide]: the IC50 on Tyk2 and on JH2 domain of human Tyk2 was at most 10 nM in each case.

With `CC(=O)Nc1cc(Nc2ccnc(C(C)(F)F)n2)c(-c2nc3c(s2)COCC3)cn1` [Example 573, N-(4-((2-(1,1-difluoroethyl)pyrimidin-4-yl)amino)-5-(6,7-dihydrO4H-pyrano[4,3-d]thiazol-2-yl)pyridin-2-yl)acetamide], the IC50 against Tyk2 and at JH2 domain of human Tyk2 was at most 10 nM throughout.

In the case of `COC(C)c1ccc(-c2cnc(NC(C)=O)cc2Nc2cc(C)nc(C34COC(C3)C4)n2)nc1` (centres unmarked) [Example 575, N-(4′-((2-(2-oxabicyclo[2.1.1]hexan-4-yl)-6-methylpyrimidin-4-yl)amino)-5-(1-methoxyethyl)-[2,3′-bipyridin]-6′-yl)acetamide], the IC50 on Tyk2 and on JH2 domain of human Tyk2 was at most 10 nM each time.

For `CC(=O)Nc1cc(Nc2cc(C)nc(C34COC(C3)C4)n2)c(-c2cc(C(F)F)ccn2)cn1` [Example 576, N-(4′-((2-(2-oxabicyclo[2.1.1]hexan-4-yl)-6-methylpyrimidin-4-yl)amino)-4-(difluoromethyl)-[2,3′-bipyridin]-6′-yl)acetamide], the IC50 is 100 to 1000 nM against Tyk2 and at most 10 nM on JH2 domain of human Tyk2.

On to `CC(=O)Nc1cc(Nc2cc(C)nc(C34COC(C3)C4)n2)c(-c2ccc(C(C)F)cn2)cn1` (centres unmarked) [Example 577, N-(4′-((2-(2-oxabicyclo[2.1.1]hexan-4-yl)-6-methylpyrimidin-4-yl)amino)-5-(1-fluoroethyl)-[2,3′-bipyridin]-6′-yl)acetamide], for which the IC50 against Tyk2 and on JH2 domain of human Tyk2 was at most 10 nM each time.

As for `CC(=O)Nc1cc(Nc2cc(C)nc(C(C)(F)F)n2)c(-c2coc(C)n2)cn1` [Example 578, N-(4-((2-(1,1-difluoroethyl)-6-methylpyrimidin-4-yl)amino)-5-(2-methyloxazol-4-yl)pyridin-2-yl)acetamide], the IC50 on Tyk2 and on JH2 domain of human Tyk2 was at most 10 nM in each case.

Consider `CC(=O)Nc1cc(Nc2ccnc(C(C)(F)F)n2)c(-c2cnn(C3CCC3)c2)cn1` [Example 579, N-(5-(1-cyclobutyl-1H-pyrazol-4-yl)-4-((2-(1,1-difluoroethyl)pyrimidin-4-yl)amino)pyridin-2-yl)acetamide], for which the IC50 against Tyk2 is at least 1000 nM; at JH2 domain of human Tyk2, 100 to 1000 nM.

For `CC(=O)Nc1cc(Nc2ccnc(C(C)(F)F)n2)c(-c2coc(C)n2)cn1` [Example 581, N-(4-((2-(1,1-difluoroethyl)pyrimidin-4-yl)amino)-5-(2-methyloxazol-4-yl)pyridin-2-yl)acetamide], the IC50 was 10 to 100 nM against Tyk2 and at most 10 nM at JH2 domain of human Tyk2.

Turning to `CCc1cc(Nc2cc(NC(C)=O)ncc2-c2ccc(F)cn2)nc(C(C)(F)F)n1` [Example 582, N-(4′-((2-(1,1-difluoroethyl)-6-ethylpyrimidin-4-yl)amino)-5-fluorO[2,3′-bipyridin]-6′-yl)acetamide], the IC50 at Tyk2 and on JH2 domain of human Tyk2 was at most 10 nM throughout.

Take `CCc1cc(Nc2cc(NC(C)=O)ncc2-c2ccc(C#N)cn2)nc(C(C)(F)F)n1` [Example 583, N-(5-cyanO4′-((2-(1,1-difluoroethyl)-6-ethylpyrimidin-4-yl)amino)-[2,3′-bipyridin]-6′-yl)acetamide]: the IC50 on Tyk2 and at JH2 domain of human Tyk2 was at most 10 nM each time.

For the compound `COCCOc1cc(Nc2cc(NC(C)=O)ncc2-c2ccncn2)nc(C(C)(F)F)n1` [Example 585, N-(4-((2-(1,1-difluoroethyl)-6-(2-methoxyethoxy)pyrimidin-4-yl)amino)-5-(pyrimidin-4-yl)pyridin-2-yl)acetamide], the concentration for half-maximal inhibition (IC50) at Tyk2 and on JH2 domain of human Tyk2 was at most 10 nM in each case.

Regarding `COc1cncc(Nc2cc(NC(C)=O)ncc2-c2ccc(F)cn2)n1` [Example 586, N-(5-fluorO4′-((6-methoxypyrazin-2-yl)amino)-[2,3′-bipyridin]-6′-yl)acetamide], the values for the IC50 against Tyk2 and at JH2 domain of human Tyk2 were 10 to 100 nM and at most 10 nM, respectively.
